Five molecules from paper doi:10.1101/2023.03.24.534094v2 (biorxiv, 2023) can be followed below.

Read-outs that look alike come from different tables or passages of the source.

Some targets named below: DAPK1 (Homo sapiens, UniProt P53355); EpHA5 (Homo sapiens, UniProt P54756); Erk2 (Homo sapiens, UniProt P28482); FES (Homo sapiens, UniProt P07332); PCTAIRE1 (Homo sapiens, UniProt Q00536).
Holding throughout (assay): biochemical
In a further assay the target is T1, DYRK2 (Homo sapiens, UniProt Q92630).
T1 sequence (Q92630 1-601): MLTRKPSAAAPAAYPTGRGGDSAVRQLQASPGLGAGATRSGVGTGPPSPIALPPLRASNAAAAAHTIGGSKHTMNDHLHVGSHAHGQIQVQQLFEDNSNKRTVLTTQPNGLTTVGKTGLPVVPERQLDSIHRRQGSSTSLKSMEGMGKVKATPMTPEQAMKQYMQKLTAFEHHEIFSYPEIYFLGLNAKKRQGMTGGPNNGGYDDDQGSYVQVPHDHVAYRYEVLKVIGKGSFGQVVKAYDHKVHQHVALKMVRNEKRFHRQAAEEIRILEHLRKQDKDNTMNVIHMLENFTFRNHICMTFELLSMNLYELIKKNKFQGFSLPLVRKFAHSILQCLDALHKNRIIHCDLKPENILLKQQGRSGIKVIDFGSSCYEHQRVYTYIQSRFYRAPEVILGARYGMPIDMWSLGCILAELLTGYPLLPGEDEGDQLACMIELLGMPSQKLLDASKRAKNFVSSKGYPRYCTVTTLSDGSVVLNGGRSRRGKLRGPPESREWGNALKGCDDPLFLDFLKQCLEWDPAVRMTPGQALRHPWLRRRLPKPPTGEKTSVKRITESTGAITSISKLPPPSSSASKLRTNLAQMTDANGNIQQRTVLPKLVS

The target in a further assay is T2, Haspin (Homo sapiens, UniProt Q8TF76).
T2 sequence (Q8TF76 1-798): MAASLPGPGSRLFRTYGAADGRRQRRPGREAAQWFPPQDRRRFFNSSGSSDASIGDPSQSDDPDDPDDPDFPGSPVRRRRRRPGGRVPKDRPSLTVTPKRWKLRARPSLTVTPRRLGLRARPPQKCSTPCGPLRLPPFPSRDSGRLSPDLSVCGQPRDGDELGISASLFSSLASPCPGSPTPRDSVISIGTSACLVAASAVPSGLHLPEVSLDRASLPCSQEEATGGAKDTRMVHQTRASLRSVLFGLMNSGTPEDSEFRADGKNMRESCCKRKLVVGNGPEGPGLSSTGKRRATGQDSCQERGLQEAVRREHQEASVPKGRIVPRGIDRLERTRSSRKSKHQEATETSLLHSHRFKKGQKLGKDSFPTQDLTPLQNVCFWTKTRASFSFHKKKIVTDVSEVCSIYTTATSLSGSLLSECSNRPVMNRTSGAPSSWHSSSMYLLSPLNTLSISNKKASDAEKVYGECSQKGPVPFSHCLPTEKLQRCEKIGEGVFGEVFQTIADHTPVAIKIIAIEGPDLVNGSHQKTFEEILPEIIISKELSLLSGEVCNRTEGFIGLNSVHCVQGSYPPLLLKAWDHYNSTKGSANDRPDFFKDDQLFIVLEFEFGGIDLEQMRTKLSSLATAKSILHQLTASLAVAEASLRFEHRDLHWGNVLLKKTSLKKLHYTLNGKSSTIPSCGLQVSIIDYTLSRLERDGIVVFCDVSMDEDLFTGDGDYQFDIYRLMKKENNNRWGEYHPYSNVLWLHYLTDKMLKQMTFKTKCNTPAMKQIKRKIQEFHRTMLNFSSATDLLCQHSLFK

In another assay the target is T3, NQO2A (Homo sapiens, UniProt P16083).
T3 sequence (P16083 1-231): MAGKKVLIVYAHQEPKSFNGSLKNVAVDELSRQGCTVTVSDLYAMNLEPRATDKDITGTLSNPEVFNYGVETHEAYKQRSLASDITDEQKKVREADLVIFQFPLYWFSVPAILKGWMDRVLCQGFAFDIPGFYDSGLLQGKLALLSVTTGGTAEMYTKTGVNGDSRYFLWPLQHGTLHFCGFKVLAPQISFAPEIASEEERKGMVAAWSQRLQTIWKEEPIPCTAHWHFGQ

Sequence of FES (P07332 whole entry): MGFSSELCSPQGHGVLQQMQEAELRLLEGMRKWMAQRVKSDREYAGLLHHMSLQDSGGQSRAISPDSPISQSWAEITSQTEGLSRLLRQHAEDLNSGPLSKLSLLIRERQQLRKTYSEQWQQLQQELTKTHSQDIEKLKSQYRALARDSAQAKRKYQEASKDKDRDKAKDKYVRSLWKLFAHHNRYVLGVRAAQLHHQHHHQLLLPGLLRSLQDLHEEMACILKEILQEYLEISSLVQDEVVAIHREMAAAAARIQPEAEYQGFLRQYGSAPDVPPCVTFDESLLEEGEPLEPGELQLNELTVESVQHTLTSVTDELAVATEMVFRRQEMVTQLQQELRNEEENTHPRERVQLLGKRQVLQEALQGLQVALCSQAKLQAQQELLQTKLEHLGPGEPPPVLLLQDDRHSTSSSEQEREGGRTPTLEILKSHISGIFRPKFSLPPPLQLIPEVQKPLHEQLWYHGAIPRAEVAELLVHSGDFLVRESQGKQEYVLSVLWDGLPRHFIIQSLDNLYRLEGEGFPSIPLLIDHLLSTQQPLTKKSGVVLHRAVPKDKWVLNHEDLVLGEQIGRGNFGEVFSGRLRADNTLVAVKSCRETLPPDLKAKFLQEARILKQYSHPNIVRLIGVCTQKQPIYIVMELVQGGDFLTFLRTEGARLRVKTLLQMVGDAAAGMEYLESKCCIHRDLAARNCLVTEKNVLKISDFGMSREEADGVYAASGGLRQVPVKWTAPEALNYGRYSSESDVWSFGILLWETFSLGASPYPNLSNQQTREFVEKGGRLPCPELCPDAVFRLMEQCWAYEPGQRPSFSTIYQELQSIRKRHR
Sequence of EpHA5 (P54756 whole entry): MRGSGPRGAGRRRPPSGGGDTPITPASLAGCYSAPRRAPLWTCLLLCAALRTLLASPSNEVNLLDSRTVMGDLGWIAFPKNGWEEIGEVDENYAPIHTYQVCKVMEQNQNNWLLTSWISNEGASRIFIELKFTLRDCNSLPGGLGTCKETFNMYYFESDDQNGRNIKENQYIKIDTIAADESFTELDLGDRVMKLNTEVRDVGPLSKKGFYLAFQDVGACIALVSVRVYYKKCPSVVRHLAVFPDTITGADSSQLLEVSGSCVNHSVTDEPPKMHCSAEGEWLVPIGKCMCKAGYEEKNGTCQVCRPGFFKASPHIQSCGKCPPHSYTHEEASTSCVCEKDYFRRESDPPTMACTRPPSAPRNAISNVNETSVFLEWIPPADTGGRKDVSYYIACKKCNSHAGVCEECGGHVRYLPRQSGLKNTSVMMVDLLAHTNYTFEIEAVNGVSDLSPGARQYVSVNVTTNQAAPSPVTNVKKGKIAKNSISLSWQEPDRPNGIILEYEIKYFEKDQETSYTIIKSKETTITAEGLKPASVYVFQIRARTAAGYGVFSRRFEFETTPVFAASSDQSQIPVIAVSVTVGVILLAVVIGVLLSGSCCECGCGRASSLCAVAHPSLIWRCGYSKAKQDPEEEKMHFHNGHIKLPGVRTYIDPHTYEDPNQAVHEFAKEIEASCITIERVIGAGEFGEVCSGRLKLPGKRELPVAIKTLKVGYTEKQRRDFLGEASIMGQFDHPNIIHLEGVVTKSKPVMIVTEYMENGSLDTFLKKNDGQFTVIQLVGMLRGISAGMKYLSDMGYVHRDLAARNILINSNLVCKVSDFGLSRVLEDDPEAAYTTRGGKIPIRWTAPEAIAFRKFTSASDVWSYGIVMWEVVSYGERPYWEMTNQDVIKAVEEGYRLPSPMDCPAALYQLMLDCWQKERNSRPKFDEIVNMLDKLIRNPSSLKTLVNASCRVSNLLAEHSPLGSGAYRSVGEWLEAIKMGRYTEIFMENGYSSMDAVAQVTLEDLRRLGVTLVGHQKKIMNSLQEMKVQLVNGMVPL
Sequence of Erk2 (P28482 whole entry): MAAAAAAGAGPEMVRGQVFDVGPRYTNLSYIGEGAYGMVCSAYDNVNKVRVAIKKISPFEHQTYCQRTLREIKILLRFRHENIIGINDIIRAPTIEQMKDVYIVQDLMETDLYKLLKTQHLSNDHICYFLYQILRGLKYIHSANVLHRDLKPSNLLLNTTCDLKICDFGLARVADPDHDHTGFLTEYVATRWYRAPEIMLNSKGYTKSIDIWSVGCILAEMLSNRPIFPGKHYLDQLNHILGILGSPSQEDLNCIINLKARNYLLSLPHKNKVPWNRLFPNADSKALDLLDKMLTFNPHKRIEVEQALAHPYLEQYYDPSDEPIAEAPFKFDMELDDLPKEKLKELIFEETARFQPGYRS
Sequence of DAPK1 (P53355 whole entry): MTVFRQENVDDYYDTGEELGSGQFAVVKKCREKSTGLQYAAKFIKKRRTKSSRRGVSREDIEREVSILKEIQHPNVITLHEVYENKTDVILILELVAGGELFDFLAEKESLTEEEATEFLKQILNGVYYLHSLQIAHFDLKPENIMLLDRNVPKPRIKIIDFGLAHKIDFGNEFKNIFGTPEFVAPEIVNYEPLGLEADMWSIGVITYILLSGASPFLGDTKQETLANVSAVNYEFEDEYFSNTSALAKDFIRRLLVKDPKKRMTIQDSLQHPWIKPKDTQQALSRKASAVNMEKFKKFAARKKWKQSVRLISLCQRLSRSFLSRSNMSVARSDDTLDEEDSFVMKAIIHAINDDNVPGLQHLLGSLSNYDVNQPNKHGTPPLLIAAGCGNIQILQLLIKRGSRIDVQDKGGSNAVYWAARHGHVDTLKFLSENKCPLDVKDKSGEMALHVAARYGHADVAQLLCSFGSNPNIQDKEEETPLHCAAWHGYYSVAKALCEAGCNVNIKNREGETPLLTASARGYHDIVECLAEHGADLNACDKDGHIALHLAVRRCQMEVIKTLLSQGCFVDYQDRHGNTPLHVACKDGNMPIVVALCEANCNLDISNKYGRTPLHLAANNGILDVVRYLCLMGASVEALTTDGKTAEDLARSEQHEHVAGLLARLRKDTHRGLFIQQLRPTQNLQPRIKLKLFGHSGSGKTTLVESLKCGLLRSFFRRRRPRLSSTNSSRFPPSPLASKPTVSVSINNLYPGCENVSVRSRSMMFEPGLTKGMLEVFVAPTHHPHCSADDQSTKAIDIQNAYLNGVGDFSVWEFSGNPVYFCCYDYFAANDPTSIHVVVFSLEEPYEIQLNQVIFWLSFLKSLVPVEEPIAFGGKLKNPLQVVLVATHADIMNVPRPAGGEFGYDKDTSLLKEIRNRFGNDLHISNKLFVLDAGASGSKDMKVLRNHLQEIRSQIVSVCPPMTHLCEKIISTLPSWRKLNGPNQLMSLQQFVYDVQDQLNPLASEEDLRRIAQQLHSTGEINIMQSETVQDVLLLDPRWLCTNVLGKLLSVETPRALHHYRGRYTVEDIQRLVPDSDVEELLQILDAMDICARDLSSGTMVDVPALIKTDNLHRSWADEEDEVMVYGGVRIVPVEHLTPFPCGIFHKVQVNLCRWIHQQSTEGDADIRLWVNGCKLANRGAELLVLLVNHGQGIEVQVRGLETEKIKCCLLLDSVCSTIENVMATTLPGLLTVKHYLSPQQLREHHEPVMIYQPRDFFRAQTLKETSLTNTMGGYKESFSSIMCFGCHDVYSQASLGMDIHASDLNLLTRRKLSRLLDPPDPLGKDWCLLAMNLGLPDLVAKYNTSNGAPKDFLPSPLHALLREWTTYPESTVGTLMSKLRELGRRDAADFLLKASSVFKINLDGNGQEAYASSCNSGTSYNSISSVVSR
Sequence of PCTAIRE1 (Q00536 whole entry): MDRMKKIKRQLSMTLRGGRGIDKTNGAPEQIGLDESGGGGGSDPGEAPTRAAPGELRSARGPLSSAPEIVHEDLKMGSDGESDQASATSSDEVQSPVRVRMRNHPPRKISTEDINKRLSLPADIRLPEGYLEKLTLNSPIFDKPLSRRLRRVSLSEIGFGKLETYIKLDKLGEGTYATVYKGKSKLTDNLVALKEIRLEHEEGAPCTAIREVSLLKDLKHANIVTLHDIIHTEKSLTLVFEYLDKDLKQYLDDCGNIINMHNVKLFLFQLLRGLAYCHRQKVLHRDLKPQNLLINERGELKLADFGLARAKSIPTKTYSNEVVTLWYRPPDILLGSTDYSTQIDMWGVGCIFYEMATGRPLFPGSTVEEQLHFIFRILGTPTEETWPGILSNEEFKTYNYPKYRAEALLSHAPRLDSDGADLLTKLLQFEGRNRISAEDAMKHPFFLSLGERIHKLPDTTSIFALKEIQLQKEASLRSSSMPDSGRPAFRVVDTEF

Turning to `CNc1ncc2cc(-c3cc(Cl)ccc3Cl)c(=O)n(CCCCN)c2n1` [compound 8, 8-(4-Aminobutyl)-6-(2,5-dichlorophenyl)-2-(methylamino)pyrido[2,3-d]pyrimidin-7(8H)-one], the ΔTm at 10 µM at DAPK1 (read-out: dTm 8) worked out at 0.1 °C; at DYRK2 (read-out: dTm 8) it was 0.1 °C; on EpHA5 (read-out: dTm 8), 5.4 °C; at Erk2 (read-out: dTm 8) it was 0.1 °C; on FES (read-out: dTm 8), 2.5 °C; on Haspin (read-out: dTm 8), 0.6 °C. Moreover, the figures for the ΔTm at 10 µM at NQO2A (read-out: dTm 8) and on PCTAIRE1 (read-out: dTm 8) were 0.5 °C and 0.7 °C, respectively.

`CNc1ncc2cc(-c3cc(Cl)ccc3Br)c(=O)n(CCCCN)c2n1` [compound 10, 8-(4-Aminobutyl)-6-(2-bromo-5-chlorophenyl)-2-(methylamino)pyrido[2,3-d]pyrimidin-7(8H)-one]: the ΔTm at 10 µM came out at 0.1 °C on DAPK1 (read-out: dTm 10); 0 °C on DYRK2 (read-out: dTm 10); 5.5 °C on EpHA5 (read-out: dTm 10); 0.1 °C at Erk2 (read-out: dTm 10); 2.5 °C at FES (read-out: dTm 10); 0.6 °C at Haspin (read-out: dTm 10). For the same molecule, the ΔTm at 10 µM at NQO2A (read-out: dTm 10) and on PCTAIRE1 (read-out: dTm 10) was 0.6 °C in each case.

Turning to `CNc1ncc2cc(-c3cc(Br)ccc3Br)c(=O)n(CCCCN)c2n1` [compound 11, 8-(4-Aminobutyl)-6-(2,5-dibromophenyl)-2-(methylamino)pyrido[2,3-d]pyrimidin-7(8H)-one], the ΔTm at 10 µM on DAPK1 (read-out: dTm 11) was determined as 0.2 °C; on DYRK2 (read-out: dTm 11), 0 °C; at EpHA5 (read-out: dTm 11), 4.7 °C; on Erk2 (read-out: dTm 11) it was 0.1 °C; at FES (read-out: dTm 11), 2.8 °C; at Haspin (read-out: dTm 11), 0.7 °C. The ΔTm at 10 µM at NQO2A (read-out: dTm 11) amounted to 0.3 °C; on PCTAIRE1 (read-out: dTm 11) it was 0.9 °C.

Regarding `CNc1ncc2cc(-c3cc(C(F)(F)F)ccc3Cl)c(=O)n(CCCCN)c2n1` [compound 9, 8-(4-Aminobutyl)-6-(2-chloro-5-(trifluoromethyl)phenyl)-2-(methylamino)pyrido[2,3-d]pyrimidin-7(8H)-one], the ΔTm at 10 µM at DAPK1 (read-out: dTm 9) amounted to 0.1 °C; on DYRK2 (read-out: dTm 9), 0 °C; at EpHA5 (read-out: dTm 9) it was 2.6 °C; at Erk2 (read-out: dTm 9) it was 0 °C; on FES (read-out: dTm 9), 1.4 °C; at Haspin (read-out: dTm 9), 0.1 °C. The ΔTm at 10 µM on NQO2A (read-out: dTm 9) is -0.3 °C; on PCTAIRE1 (read-out: dTm 9), 0.2 °C.

In the case of `CNc1ncc2cc(-c3cc(F)c(-c4cccc(C)n4)cc3F)c(=O)n(CCCCN)c2n1` [compound 12, 8-(4-Aminobutyl)-6-(2,5-difluoro-4-(6-methylpyridin-2-yl)phenyl)-2-(methylamino)pyrido[2,3-d]pyrimidin-7(8H)-one], the ΔTm at 10 µM was -0.9 °C on DAPK1 (read-out: dTm 12); -0.2 °C on DYRK2 (read-out: dTm 12); 3.2 °C on EpHA5 (read-out: dTm 12); -1.8 °C at Erk2 (read-out: dTm 12); 5.4 °C on FES (read-out: dTm 12); -0.4 °C on Haspin (read-out: dTm 12). Further, the ΔTm at 10 µM at NQO2A (read-out: dTm 12) worked out at 0.2 °C; at PCTAIRE1 (read-out: dTm 12) it was 1.3 °C.
